Where two headings read alike, the source gives them in different places.
Key:
Human liver cathepsin L = target: T1, Human liver cathepsin L (Homo sapiens, UniProt P07711); test: Cathepsin L inhibition in vitro (Z-FR-AMC fluorescence); type: biochemical
T1 construct: from tissue; host or cells: human liver
Procedure: Human liver cathepsin L (1 nM) was incubated in 50 mM sodium acetate buffer, pH 5.5 containing 1 mM EDTA, 2 mM DTT, 0.001% (v/v) brij 35 with potential inhibitors at 20 different concentrations (from 0.05 nM to 50 μM) at 25° C. for 5 minutes before 100 μL substrate (benzyloxycarbonyl-L-phenylalanyl-L-arginyl-7-amido-4-methylcoumarin, abbreviated as Z-FR-AMC, 50 μM in final assay condition) was added to the enzyme-inhibitor mixture; total volume was 200 μL. Controls were performed using enzyme alone, substrate alone, and enzyme with DMSO. […] Spectra were taken at 3-sec intervals for 3 minutes. IC50 values were determined by non-linear regression analysis using vo(inh)=VMAX/{1+10(logIC50−x)*Hillslope} and Prism software (GraphPad).

Cruzain = Cruzain (Trypanosoma cruzi, UniProt P25779); test: biochemical; type: biochemical; settings: Table A; 0.1 nM cruzain, pH 5.50, 25° C., 10 μM Z-Phe-Arg-AMC
Procedure: Cruzain (0.1 nM) in 100 mM sodium acetate buffer (pH 5.50) containing 5 mM DTT was preincubated for 5 min at 25° C. with inhibitor.

Cat B = Cat B (Homo sapiens, UniProt P07858); test: Cathepsin B inhibition in vitro; type: biochemical
Procedure: For in vitro cysteine protease inhibition determinations, a compound's effectiveness can be given by an IC50 value. In these assays, the enzyme to be inhibited (e.g., a cruzain or cruzipain, a rhodesain, a brucipain, a congopain, a falcipain, CPB2.8 Delta CTE, a cathepsin-L, cathepsin-B, a cathepsin-H, a cathepsin-K, a cathepsin-S) is first incubated with varying concentrations (about 20-50,000 nM) of a test compound. To this is added a short peptide substrate of the enzyme of 1 to 10 amino acids, usually a di- or tri-peptide substrate, which is labeled with either a fluorogenic or chromogenic moiety. An exemplary chromogenic moiety is p-nitro-anilide (pNA). […] Exemplary peptide substrates include Phe-Arg, Arg-Arg, Phe-Arg-X (X=Ala, Arg), and Phe-X-Ser-Arg-Gln (X=Arg, 4-aminomethyl-phenylalanine (Arm), 4-aminomethyl-N-isopropyl-phenylalanin-e (laf), 4-piperidinyl-alanine (Ppa) or 4-aminocyclohexyl-alanine (Aca)). Cleavage of the labeled substrate induces a chromogenic or fluorescent signal that is measured using spectrophotometer or a spectrofluorometer, respectively. Signals induced in the presence of varying concentrations of test compound are measured in comparison to a positive control of enzyme and substrate and a negative control of enzyme in diluent (e.g., DMSO). Spontaneous cleavage of substrate is measured in controls with substrate alone. IC50 values are determined graphically using compound inhibitor concentrations in the linear portion of a plot of inhibition versus log [I].

cathepsin L [1] = test: Inhibition of activated cathepsin L in DU-145 cell lysates; type: cell-based; settings: DU-145 cell lysates preincubated for 24 h with compound, following removal of media, replicate samples a-c; for activity (cathepsin L activity after activation): control 6.93E−03; for cps (cathepsin L activity after activation): control 26950
Procedure: (§1) A prostrate carcinoma derived cell line (DU-145) was maintained in free phenol red DMEM supplemented with 10% fetal bovine serum, 1% glutamine, 1% glutamax, 1% Penicillin-Streptomycin and 1 mM sodium pyruvate, at 37° C. in an atmosphere of 95% air/5% CO2. DU145 was plated at 4×10^6 cells/10 cm Petri dish for dense, super confluent density. These cultures were incubated for 3 days before collection. Twenty-four hours prior to harvesting, cells were fed with serum-free media or serum-free media containing inhibitors at a final concentration of 20 μM. On the day of harvesting, the serum-free medium was collected for assay of Cathepsin L activity secreted in the medium. The cells were rinsed in cold PBS (pH 7.2) and collected in cold PBS containing […]. The cells were lysed using a Sonicator (Misonix 3000) at medium setting with pauses at 0° C. for temperature equilibration. Then the homogenate was centrifuged at 13,000×g for 20 min and the supernatant saved. […] Fluorescence was measured in a Fluoro Max 2 (Jobin Yvon) spectrofluorometer at an excitation wavelength of 355 nm and an emission wavelength of 460 nm. The substrate is hydrolyzed by cathepsin L and to a smaller extent by cathepsin B, therefore the activity is referred to as cathepsin L+B activity. Data analysis was performed using Prism software (GraphPad version 4). Data corresponding to cathepsin L activity (after activation) in cell lysates preincubated for 24 h with Compound 14 and following the removal of media is summarized in Table 5 below. Data corresponding to cathepsin L activity (after activation) in cell lysates preincubated for 24 h with Compound 27 and following the removal of media is summarized in Table 6 below.

cathepsin L [2] = test: Inhibition of activated cathepsin L secreted in DU-145 cell conditioned media; type: cell-based; settings: compound 20 μM, replicate samples a-c
Procedure: as §1, with “cell conditioned media in the presence of” for “cell lysates preincubated for 24 h with”, “14 (20 μM)” for “14 and following the removal of media”, “Table 3” for “Table 5”, “27 (20 μM)” for “27 and following the removal of media”, “Table 4” for “Table 6”

[3] = Table A, 1 nM human liver cathepsin L, pH 5.5, 25° C., 50 μM Z-FR-AMC, read-out: Cat L IC50

T1 sequence (P07711 114-333): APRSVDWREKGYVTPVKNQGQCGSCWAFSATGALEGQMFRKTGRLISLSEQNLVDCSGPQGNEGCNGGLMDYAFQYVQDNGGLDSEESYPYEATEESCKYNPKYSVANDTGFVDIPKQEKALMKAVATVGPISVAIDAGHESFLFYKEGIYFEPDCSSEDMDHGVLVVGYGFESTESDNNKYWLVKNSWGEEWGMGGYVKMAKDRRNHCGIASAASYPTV
Cruzain, sequence (P25779 123-467): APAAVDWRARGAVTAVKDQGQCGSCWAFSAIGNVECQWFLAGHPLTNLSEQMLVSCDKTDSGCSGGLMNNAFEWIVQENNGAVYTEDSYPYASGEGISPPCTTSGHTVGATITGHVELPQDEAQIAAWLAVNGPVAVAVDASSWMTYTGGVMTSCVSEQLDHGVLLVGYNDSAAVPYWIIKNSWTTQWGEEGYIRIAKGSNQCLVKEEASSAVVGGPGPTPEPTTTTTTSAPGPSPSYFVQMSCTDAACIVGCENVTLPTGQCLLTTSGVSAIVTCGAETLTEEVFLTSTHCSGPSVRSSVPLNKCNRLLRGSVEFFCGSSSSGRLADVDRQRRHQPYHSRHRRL

| Compound | IC50 (Human liver cathepsin L; [3]) [nM] | IC50 (Cruzain) [nM] | other results |
| --- | --- | --- | --- |
| CC(=O)C1=CCCc2ccccc21 [Compound 37, [1-(3,4-Dihydronaphthalenyl)]methyl ketone] | > 10000 | – | – |
| NC(=S)N/N=C1\CCCc2ccc(Br)cc21 [Compound 21, 7-Bromo-1-tetralone thiosemicarbazone] | 619 | 17 | – |
| NC(=S)N/N=C1\CCc2ccc(Br)cc2C1 [Compound 69, 7-Bromo-2-tetralone thiosemicarbazone] | 4260 | > 17000 | IC50 (Cat B; Table A, read-out: Cat B IC50): < 50000 nM |
| NC(=S)N/N=C1\CCc2c(Br)cc(Br)cc2C1 [Compound 70, 5,7-Dibromo-2-tetralone thiosemicarbazone] | 10900 | 4480 | IC50 (Cat B; Table A, read-out: Cat B IC50): > 50000 nM |
| NC(=S)N/N=C1\CCS(=O)(=O)c2ccc(Br)cc21 [Compound 23, 6-Bromo-1,1-dioxo-1-thiochroman-4-one thiosemicarbazone] | 1 | 210 | – |
| NC(=S)N/N=C1\CCc2ccccc2O1 [Compound 48] | 2450 | > 17000 | – |
| NC(=S)N/N=C1\CCS(=O)(=O)c2c(Br)cc(Br)cc21 [Compound 24, 6,8-Dibromo-1,1-dioxo-1-thiochroman-4-one thiosemicarbazone] | 716 | 820 | – |
| NC(=S)N/N=C1\CCOc2ccccc21 [Compound 26] | 6380 | – | – |
| NC(=S)N/N=C1\CCc2ccccc21 [Compound 49] | > 10000 | – | – |
| NC(=S)N/N=C1\CCS(=O)(=O)c2ccccc21 [Compound 27] | 5050 | – | activity (cathepsin L activity after activation) (cathepsin L [1]; listed as 27a): 0.00308 µM/s; activity (cathepsin L activity after activation) (cathepsin L [1]; listed as 27b): 0.00255 µM/s; activity (cathepsin L activity after activation) (cathepsin L [1]; listed as 27c): 0.00275 µM/s; cps (cathepsin L activity after activation) (cathepsin L [1]; listed as 27a): 11990 cps; cps (cathepsin L activity after activation) (cathepsin L [1]; listed as 27b): 9918 cps; cps (cathepsin L activity after activation) (cathepsin L [1]; listed as 27c): 10690 cps; activity (cathepsin L activity after activation) (cathepsin L [2]; control 1.50E−03, listed as 27a): 0.000101 µM/s; activity (cathepsin L activity after activation) (cathepsin L [2]; control 1.50E−03, listed as 27b): 9.46e-05 µM/s; activity (cathepsin L activity after activation) (cathepsin L [2]; control 1.50E−03, listed as 27c): 9.81e-05 µM/s; cps (cathepsin L activity after activation) (cathepsin L [2]; control 5848, listed as 27a): 393.7 cps; cps (cathepsin L activity after activation) (cathepsin L [2]; control 5848, listed as 27b): 367.5 cps; cps (cathepsin L activity after activation) (cathepsin L [2]; control 5848, listed as 27c): 381.1 cps |
| NC(=S)N/N=C1\CCC(c2ccc(Br)cc2)C1 (stereo not shown) [Compound 46] | > 10000 | > 5000 | – |
| NC(=S)N/N=C1\CCCc2c(Br)cccc21 [Compound 20, 5-Bromo-1-tetralone thiosemicarbazone] | 367 | 1200 | – |
| CC/C(=N\NC(N)=S)c1cccc(Br)c1 [Compound 5, 3-Bromopropiophenone thiosemicarbazone] | – | – | IC50 (Cat B; Table B, unit inferred, read-out: Cat B): > 50000 nM; IC50 (Human liver cathepsin L; Table B, unit inferred, read-out: Cat L): > 10000 nM |
| C=CC(=O)C1=CCCc2ccc(Br)cc21 [Compound 38] | 372 | – | – |
| NC(=S)N/N=C(\c1ccccc1)c1cccc(Br)c1 [Compound 13, Phenyl(3-bromophenyl) ketone thiosemicarbazone] | 16200 | 80 | – |
| CC/C(=N\NC(N)=S)c1cccc(N)c1 [Compound 8, 3-Aminopropiophenone thiosemicarbazone] | 1640 | 3640 | – |
| NC(=S)N/N=C1\CCCC(c2ccc(Br)cc2)C1 (stereo not shown) [Compound 47] | 2910 | > 7000 | – |
| CC/C(=N\NC(N)=S)c1cccc(O)c1 [Compound 7, 1-(3-Hydroxyphenyl)-1-propanone thiosemicarbazone] | 2570 | – | – |
| CC/C(=N\NC(N)=S)c1cccc([N+](=O)[O-])c1 [Compound 6, 3-Nitropropiophenone thiosemicarbazone] | 5790 | 860 | – |

— patent US8173696B2, “Inhibitors of cysteine proteases and methods of use thereof” (Baylor University, priority 2007, dated 2012)
